{"source": "ChEMBL document CHEMBL4145536", "about": "“Design, synthesis and biological evaluation of novel bouchardatine analogs as potential inhibitors of adipogenesis/lipogenesis in 3T3-L1 adipocytes” (Eur J Med Chem, 2018)", "note": "Calls of active or inactive are those of the source. No cut-off for these calls is given here.", "data": [{"tested_on": "HepG2", "experiment": "Lipid lowering activity in human HepG2 cells assessed as decrease in triglyceride level at 10 uM for 6 days in presence of oleic acid by oil red o-staining based assay relative to control", "assay_type": "functional", "parameters": "scale not given: the % may be the effect or the level left", "details": "not given", "units": {"Activity": "%"}, "values": [{"smiles": "c1ccc2[nH]c(-c3nc(NCCN4CCCC4)c4ccccc4n3)cc2c1", "Activity": 13.1}, {"smiles": "Brc1c(-c2nc(NCCCN3CCCC3)c3ccccc3n2)[nH]c2ccccc12", "Activity": 53.1}, {"smiles": "CCN(CC)CCNc1nc(-c2[nH]c3ccccc3c2Cl)nc2ccccc12", "Activity": 15.6}, {"smiles": "Brc1c(-c2nc(NCCCN3CCCCC3)c3ccccc3n2)[nH]c2ccccc12", "Activity": 62.3}, {"smiles": "Brc1c(-c2nc(NCCN3CCCC3)c3ccccc3n2)[nH]c2ccccc12", "Activity": 54.3}, {"smiles": "Clc1nc(-c2[nH]c3ccccc3c2Br)nc2ccccc12", "Activity": 0.9}, {"smiles": "CC(C)CCNc1nc(-c2[nH]c3ccccc3c2F)nc2ccccc12", "Activity": 38.7}, {"smiles": "O=c1[nH]c(-c2[nH]c3ccccc3c2Cl)nc2ccccc12", "Activity": 51.9}, {"smiles": "CN1CCN(CCCNc2nc(-c3[nH]c4ccccc4c3F)nc3ccccc23)CC1", "Activity": 22.5}, {"smiles": "Clc1nc(-c2[nH]c3ccccc3c2Cl)nc2ccccc12", "Activity": 37.7}, {"smiles": "O=c1[nH]c(-c2[nH]c3ccccc3c2Br)nc2ccccc12", "Activity": 40.4}, {"smiles": "CN(C)CCCNc1nc(-c2[nH]c3ccccc3c2Cl)nc2ccccc12", "Activity": 35.8}, {"smiles": "Clc1c(-c2nc(NCCN3CCCCC3)c3ccccc3n2)[nH]c2ccccc12", "Activity": 52}, {"smiles": "Fc1c(-c2nc(Cl)c3ccccc3n2)[nH]c2ccccc12", "Activity": 40.7}, {"smiles": "Brc1c(-c2nc(NCCN3CCCCC3)c3ccccc3n2)[nH]c2ccccc12", "Activity": 62.1}, {"smiles": "CN(C)CCNc1nc(-c2[nH]c3ccccc3c2Br)nc2ccccc12", "Activity": 46.1}, {"smiles": "Clc1c(-c2nc(NCCCN3CCCC3)c3ccccc3n2)[nH]c2ccccc12", "Activity": 51.4}]}, {"tested_on": "3T3-L1", "experiment": "Cytotoxicity against mouse 3T3L1 cells assessed as decrease in cell viability up to 10 uM measured up to 72 hrs by LDH release assay", "assay_type": "cell-based", "details": "3t3-l1, 72 h", "values": [{"smiles": "Fc1c(-c2nc(Cl)c3ccccc3n2)[nH]c2ccccc12", "Activity": "Non-Toxic"}]}, {"tested_on": "3T3-L1", "experiment": "Lipid lowering activity in mouse 3T3L1 cells assessed as decrease in triglyceride level at 10 uM for 6 days by oil red o-staining based microscopic assay", "assay_type": "functional, cell-based", "details": "not given", "values": [{"smiles": "Clc1nc(-c2[nH]c3ccccc3c2Br)nc2ccccc12", "Activity": "Active"}, {"smiles": "CC(C)CCNc1nc(-c2[nH]c3ccccc3c2F)nc2ccccc12", "Activity": "Active"}, {"smiles": "O=c1[nH]c(-c2[nH]c3ccccc3c2Cl)nc2ccccc12", "Activity": "Active"}, {"smiles": "Clc1nc(-c2[nH]c3ccccc3c2Cl)nc2ccccc12", "Activity": "Active"}, {"smiles": "O=c1[nH]c(-c2[nH]c3ccccc3c2Br)nc2ccccc12", "Activity": "Active"}, {"smiles": "Clc1c(-c2nc(NCCN3CCCCC3)c3ccccc3n2)[nH]c2ccccc12", "Activity": "Active"}, {"smiles": "Fc1c(-c2nc(Cl)c3ccccc3n2)[nH]c2ccccc12", "Activity": "Active"}, {"smiles": "CN(C)CCNc1nc(-c2[nH]c3ccccc3c2Br)nc2ccccc12", "Activity": "Active"}]}, {"tested_on": "3T3-L1", "experiment": "Lipid lowering activity in mouse 3T3L1 cells assessed as decrease in triglyceride level at 10 uM for 6 days by oil red o-staining based assay relative to control", "assay_type": "functional", "parameters": "scale not given: the % may be the effect or the level left", "details": "not given", "units": {"Activity": "%"}, "values": [{"smiles": "c1ccc2[nH]c(-c3nc(NCCN4CCCC4)c4ccccc4n3)cc2c1", "Activity": 66.8}, {"smiles": "Brc1c(-c2nc(NCCCN3CCCC3)c3ccccc3n2)[nH]c2ccccc12", "Activity": 81.6}, {"smiles": "CCN(CC)CCNc1nc(-c2[nH]c3ccccc3c2Cl)nc2ccccc12", "Activity": 87.5}, {"smiles": "Brc1c(-c2nc(NCCCN3CCCCC3)c3ccccc3n2)[nH]c2ccccc12", "Activity": 84.9}, {"smiles": "O=Cc1c(-c2nc(NCCN3CCCC3)c3ccccc3n2)[nH]c2ccccc12", "Activity": 94.9}, {"smiles": "Brc1c(-c2nc(NCCN3CCCC3)c3ccccc3n2)[nH]c2ccccc12", "Activity": 84.2}, {"smiles": "Clc1nc(-c2[nH]c3ccccc3c2Br)nc2ccccc12", "Activity": 58.9}, {"smiles": "CC(C)CCNc1nc(-c2[nH]c3ccccc3c2F)nc2ccccc12", "Activity": 37.3}, {"smiles": "O=c1[nH]c(-c2[nH]c3ccccc3c2Cl)nc2ccccc12", "Activity": 35.4}, {"smiles": "CN1CCN(CCCNc2nc(-c3[nH]c4ccccc4c3F)nc3ccccc23)CC1", "Activity": 42.5}, {"smiles": "Clc1nc(-c2[nH]c3ccccc3c2Cl)nc2ccccc12", "Activity": 45.6}, {"smiles": "O=c1[nH]c(-c2[nH]c3ccccc3c2Br)nc2ccccc12", "Activity": 34.6}, {"smiles": "CN(C)CCCNc1nc(-c2[nH]c3ccccc3c2Cl)nc2ccccc12", "Activity": 49.5}, {"smiles": "Clc1c(-c2nc(NCCN3CCCCC3)c3ccccc3n2)[nH]c2ccccc12", "Activity": 70.3}, {"smiles": "Fc1c(-c2nc(Cl)c3ccccc3n2)[nH]c2ccccc12", "Activity": 71.8}, {"smiles": "Brc1c(-c2nc(NCCN3CCCCC3)c3ccccc3n2)[nH]c2ccccc12", "Activity": 83.8}, {"smiles": "CN(C)CCNc1nc(-c2[nH]c3ccccc3c2Br)nc2ccccc12", "Activity": 56.4}, {"smiles": "Clc1c(-c2nc(NCCCN3CCCC3)c3ccccc3n2)[nH]c2ccccc12", "Activity": 53.8}]}, {"tested_on": "HepG2", "experiment": "Cytotoxicity against human HepG2 cells assessed as decrease in cell viability after 24 hrs by MTT assay", "assay_type": "cell-based", "details": "HepG2, 24 h", "units": {"IC50": "µM"}, "values": [{"smiles": "c1ccc2[nH]c(-c3nc(NCCN4CCCC4)c4ccccc4n3)cc2c1", "IC50": 40.4}, {"smiles": "Brc1c(-c2nc(NCCCN3CCCC3)c3ccccc3n2)[nH]c2ccccc12", "IC50": 3.1}, {"smiles": "CCN(CC)CCNc1nc(-c2[nH]c3ccccc3c2Cl)nc2ccccc12", "IC50": 4.6}, {"smiles": "Brc1c(-c2nc(NCCCN3CCCCC3)c3ccccc3n2)[nH]c2ccccc12", "IC50": 6}, {"smiles": "Brc1c(-c2nc(NCCN3CCCC3)c3ccccc3n2)[nH]c2ccccc12", "IC50": 4.3}, {"smiles": "Clc1nc(-c2[nH]c3ccccc3c2Br)nc2ccccc12", "IC50": "> 50"}, {"smiles": "CC(C)CCNc1nc(-c2[nH]c3ccccc3c2F)nc2ccccc12", "IC50": 28.7}, {"smiles": "O=c1[nH]c(-c2[nH]c3ccccc3c2Cl)nc2ccccc12", "IC50": "> 50"}, {"smiles": "CN1CCN(CCCNc2nc(-c3[nH]c4ccccc4c3F)nc3ccccc23)CC1", "IC50": 5.2}, {"smiles": "Clc1nc(-c2[nH]c3ccccc3c2Cl)nc2ccccc12", "IC50": "> 50"}, {"smiles": "O=c1[nH]c(-c2[nH]c3ccccc3c2Br)nc2ccccc12", "IC50": "> 50"}, {"smiles": "CN(C)CCCNc1nc(-c2[nH]c3ccccc3c2Cl)nc2ccccc12", "IC50": 4.1}, {"smiles": "Clc1c(-c2nc(NCCN3CCCCC3)c3ccccc3n2)[nH]c2ccccc12", "IC50": 18}, {"smiles": "Fc1c(-c2nc(Cl)c3ccccc3n2)[nH]c2ccccc12", "IC50": "> 50"}, {"smiles": "Brc1c(-c2nc(NCCN3CCCCC3)c3ccccc3n2)[nH]c2ccccc12", "IC50": 5.1}, {"smiles": "CN(C)CCNc1nc(-c2[nH]c3ccccc3c2Br)nc2ccccc12", "IC50": 4.1}, {"smiles": "Clc1c(-c2nc(NCCCN3CCCC3)c3ccccc3n2)[nH]c2ccccc12", "IC50": 4.7}]}, {"tested_on": "3T3-L1", "experiment": "Lipid lowering activity in mouse 3T3L1 cells assessed as decrease in triglyceride level treated 2 days post confluent for 9 days by oil red o-staining based assay", "assay_type": "functional, cell-based", "details": "not given", "units": {"EC50": "µM"}, "values": [{"smiles": "Fc1c(-c2nc(Cl)c3ccccc3n2)[nH]c2ccccc12", "Activity": "Dose-dependent effect", "EC50": 0.92}]}, {"species_on_record": "Mus musculus", "experiment": "Induction of AMPKalpha phosphorylation at Thr172 residue in mouse 3T3L1 cells at 2 mM after 4 hrs by Western blot analysis", "assay_type": "cell-based", "details": "not given", "values": [{"smiles": "NC(=O)c1ncn([C@@H]2O[C@H](CO)[C@@H](O)[C@H]2O)c1N", "Activity": "Active"}]}, {"tested_on": "3T3-L1", "experiment": "Cytotoxicity against mouse 3T3L1 cells assessed as decrease in cell viability after 24 hrs by MTT assay", "assay_type": "cell-based", "details": "3T3-L1, 24 h", "units": {"IC50": "µM"}, "values": [{"smiles": "c1ccc2[nH]c(-c3nc(NCCN4CCCC4)c4ccccc4n3)cc2c1", "IC50": 20.4}, {"smiles": "Brc1c(-c2nc(NCCCN3CCCC3)c3ccccc3n2)[nH]c2ccccc12", "IC50": 9.6}, {"smiles": "CCN(CC)CCNc1nc(-c2[nH]c3ccccc3c2Cl)nc2ccccc12", "IC50": 19.2}, {"smiles": "Brc1c(-c2nc(NCCCN3CCCCC3)c3ccccc3n2)[nH]c2ccccc12", "IC50": 14.9}, {"smiles": "Brc1c(-c2nc(NCCN3CCCC3)c3ccccc3n2)[nH]c2ccccc12", "IC50": 12.6}, {"smiles": "Clc1nc(-c2[nH]c3ccccc3c2Br)nc2ccccc12", "IC50": "> 50"}, {"smiles": "CC(C)CCNc1nc(-c2[nH]c3ccccc3c2F)nc2ccccc12", "IC50": "> 50"}, {"smiles": "O=c1[nH]c(-c2[nH]c3ccccc3c2Cl)nc2ccccc12", "IC50": "> 50"}, {"smiles": "CN1CCN(CCCNc2nc(-c3[nH]c4ccccc4c3F)nc3ccccc23)CC1", "IC50": 19.8}, {"smiles": "Clc1nc(-c2[nH]c3ccccc3c2Cl)nc2ccccc12", "IC50": "> 50"}, {"smiles": "O=c1[nH]c(-c2[nH]c3ccccc3c2Br)nc2ccccc12", "IC50": "> 50"}, {"smiles": "CN(C)CCCNc1nc(-c2[nH]c3ccccc3c2Cl)nc2ccccc12", "IC50": 18.1}, {"smiles": "Clc1c(-c2nc(NCCN3CCCCC3)c3ccccc3n2)[nH]c2ccccc12", "IC50": 41.6}, {"smiles": "Fc1c(-c2nc(Cl)c3ccccc3n2)[nH]c2ccccc12", "IC50": "> 50"}, {"smiles": "Brc1c(-c2nc(NCCN3CCCCC3)c3ccccc3n2)[nH]c2ccccc12", "IC50": 13.2}, {"smiles": "CN(C)CCNc1nc(-c2[nH]c3ccccc3c2Br)nc2ccccc12", "IC50": 11.4}, {"smiles": "Clc1c(-c2nc(NCCCN3CCCC3)c3ccccc3n2)[nH]c2ccccc12", "IC50": 20.1}]}]}
